Test results as given in PMC3242765, “Inhibitors of Alphavirus Entry and Replication Identified with a Stable Chikungunya Replicon Cell Line and Virus-Based Assays” (PLoS ONE, 2011).

Test system: SFV-Rluc
Settings: for SFV replication % left: primary screening of chemical libraries, compounds tested at 50 µM; for % left (remaining SFV replication): Supplementary Table 2, moderately active compounds (25 - 60% remaining), primary screen at 50 µM

| Structure (SMILES) | SFV replication % left [%] | % left (remaining SFV replication) [%] |
| --- | --- | --- |
| CCN(CC)CCCC(C)Nc1ccnc2cc(Cl)ccc12.O=P(O)(O)O.O=P(O)(O)O (stereo not shown) [PC-044] | 12.2 |  |
| NS(=O)(=O)c1cc2c(cc1Cl)N=CNS2(=O)=O [PC-045] | 90.3 |  |
| CN(C)CC/C=C1/c2ccccc2Sc2ccc(Cl)cc21.Cl [PC-047] | 90.3 |  |
| O=C(O)c1cc(-c2ccccc2)nc2ccccc12 [PC-048] | 65.1 |  |
| Oc1c(I)cc(Cl)c2cccnc12 [PC-049] | 71.9 |  |
| Cl.Cl.OCCN1CCN(CCC=C2c3ccccc3Sc3ccc(Cl)cc32)CC1 [PC-050] | 55.2 | 55.2 |
| CC(C)NCC(O)c1ccccc1Cl.Cl.O (stereo not shown) [PC-051] | 63.7 |  |
| O=S(=O)(O)NC1CCCCC1 [PC-053] | 74.9 |  |
| C[C@H](CCC(=O)O)[C@H]1CC[C@H]2[C@@H]3CC[C@@H]4C[C@H](O)CC[C@]4(C)[C@H]3C[C@H](O)[C@]12C [PC-054] | 86.5 |  |
| C#CCN(C)[C@H](C)Cc1ccccc1.Cl [PC-055] | 57.0 | 57.6 |
| Cc1cc(N)c2ccccc2[n+]1CCCCCCCCCC[n+]1c(C)cc(N)c2ccccc21.[Cl-].[Cl-] [PC-056] | 62.5 |  |
| O=C1CN=C(c2ccccc2F)c2cc(Cl)ccc2N1 [PC-057] | 68.5 |  |
| CN(C)CC[C@@H](c1ccc(Br)cc1)c1ccccn1.O=C(O)/C=C\C(=O)O [PC-058] | 69.6 |  |
| CN(C)CC[C@@H](c1ccc(Cl)cc1)c1ccccn1.O=C(O)/C=C\C(=O)O [PC-059] | 68.1 |  |
| CN1C(=O)CN=C(c2ccccc2)c2cc(Cl)ccc21 [PC-060] | 73.6 |  |
| CC(C)NCC(O)c1ccc(Cl)c(Cl)c1.Cl (stereo not shown) [PC-062] | 49.6 |  |
| O=c1oc2ccccc2c(O)c1Cc1c(O)c2ccccc2oc1=O [PC-063] | 65.6 |  |
| CCN(CC)C(C)C(=O)c1ccccc1.Cl (stereo not shown) [PC-064] | 47.1 |  |

| Structure (SMILES) | SFV replication % left [%] | % left (remaining SFV replication) [%] |
| --- | --- | --- |
| C[C@H]1O[C@@H](O[C@H]2[C@@H](O)C[C@H](O[C@H]3[C@@H](O)C[C@H](O[C@H]4CC[C@@]5(C)[C@H](CC[C@@H]6[C@@H]5C[C@@H](O)[C@]5(C)[C@@H](C7=CC(=O)OC7)CC[C@]65O)C4)O[C@@H]3C)O[C@@H]2C)C[C@H](O)[C@@H]1O [PC-065] | 141.9 |  |
| O=C1c2c(O)cccc2Cc2cccc(O)c21 [PC-066] | 27.2 |  |
| CN(C)CCOC(c1ccccc1)c1ccccc1.Cl [PC-067] | 41.0 |  |
| O=C1NC(=O)C(c2ccccc2)(c2ccccc2)N1 [PC-068] | 66.3 |  |
| Cc1c(N(C)CS(=O)(=O)[O-])c(=O)n(-c2ccccc2)n1C.[Na+] [PC-069] | 86.0 |  |
| CN(C)CCC=C1c2ccccc2COc2ccccc21.Cl [PC-070] | 21.6 |  |
| CCOc1ccc(NC(N)=O)cc1 [PC-071] | 103.3 |  |
| CC[C@H]1CN2CCc3cc(OC)c(OC)cc3[C@@H]2C[C@@H]1C[C@H]1NCCc2cc(OC)c(OC)cc21.Cl.Cl [PC-072] | 63.1 |  |
| CCN(CC)C(=O)c1ccc(O)c(OC)c1 [PC-073] | 85.5 |  |
| CCN(CC)C(C)CN1c2ccccc2Sc2ccccc21.Cl (stereo not shown) [PC-074] | 20.1 |  |
| CCOC(=O)c1ccc(O)cc1 [PC-075] | 127.8 |  |
| CCC(N)C(O)c1ccc(O)c(O)c1 (stereo not shown) [PC-076] | 126.8 |  |
| C#C[C@]1(O)CC[C@H]2[C@@H]3CCc4cc(O)ccc4[C@H]3CC[C@@]21C [PC-077] | 11.7 |  |
| CCNCC(O)c1cccc(O)c1 (stereo not shown) [PC-078] | 116.8 |  |
| CC(C(=O)[O-])c1cccc(Oc2ccccc2)c1.CC(C(=O)[O-])c1cccc(Oc2ccccc2)c1.[Ca+2] (stereo not shown) [PC-080] | 87.6 |  |
| Br.CC(Cc1ccc(O)cc1)NCC(O)c1cc(O)cc(O)c1 (stereo not shown) [PC-081] | 106.6 |  |
| Cl.Cl.OCCN1CCN(CC/C=C2/c3ccccc3Sc3ccc(C(F)(F)F)cc32)CC1 [PC-082] | 92.6 |  |
